“And” between values parts separate entries of the source, which are not always exact repeats. Identical values can stand only once.
What was measured:
[1] = tested on: humanized PXR-CAR-CYP3A4/3A7 mice fed HCD; assay: High-cholesterol diet (HCD) study: weights, plasma biochemistry; format: in vivo, mouse; conditions: for ALP / ALT / AST / Albumin / Bilirubin / Fe / UA / Urea / LDH / BW (Fig. 4g) / Chol (Fig. 4h) / Glu (Fig. 4h) / HDL (Fig. 4h) / LDL (Fig. 4h) / LW (Fig. 4g) / LW/BW (Fig. 4g) / TG (Fig. 4h): individual animals
Procedure: For experiments with a high-cholesterol diet (HCD), mice (18–26 weeks) were pretreated ad libitum for 2 weeks with diet containing 15% fat and 12.5 g/kg of cholesterol (E15103, ssniff, Soest, Germany) (Fig. 4f). After this period, animals were randomly assigned to two groups (control vehicle-treated and MI-883-treated animals, with 9 males and 7 females per group). Animals were dosed orally with MI-883 (5 mg/kg every other day—Monday, Wednesday, Friday, and the following Monday and Wednesday, for a total of 5 doses) or vehicle alone (5% DMSO/5% PEG300/90% corn oil) via oral gavage three times per week. The animals remained on the HCD during the treatment period. Mice were sacrificed after 5 treatments.
Mice were weighted and tissues (livers, blood, duodenum, jejunum, ileum, white fat) were removed, weighted and snap frozen in liquid nitrogen and stored at –80 °C until analysis. Blood was collected from the retro-orbital sinus of mice under isoflurane anesthesia into heparin-coated tubes (Kabe Laboratortechnik GmbH, Nümbrecht-Elsenroth, Germany) after 3 h fasting and analyzed on AU480 biochemistry analyzer (Beckman Coulter, Brea, USA). Sample preparation for bile acid and cholesterol analyses from tissues or feces is described below. One of the liver lobes was fixed in formalin, embedded in paraffin blocks, sectioned, and subjected to H&E staining. Blood was analyzed as described in Supplementary, Chapter 10.
Blood was collected from the retro-orbital sinus of mice under isoflurane anesthesia into heparin-coated tubes (Kabe Laboratortechnik GmbH, Nümbrecht-Elsenroth, Germany) after 3 hours of fasting. Blood was left for 10 minutes at room temperature, and then kept on ice until centrifugation (5,000 g at 4°C for 10 minutes). The collected plasma was stored at -80 °C until measurement. Lipoprotein levels and other plasmatic parameters were measured on an AU480 biochemistry analyzer (Beckman Coulter, Brea, USA).

ERβ = ERβ (Homo sapiens, UniProt Q92731); assay: Luciferase reporter gene assay ERβ, HepG2
ERβ, sequence (Q92731 264-498 limits assumed, species assumed): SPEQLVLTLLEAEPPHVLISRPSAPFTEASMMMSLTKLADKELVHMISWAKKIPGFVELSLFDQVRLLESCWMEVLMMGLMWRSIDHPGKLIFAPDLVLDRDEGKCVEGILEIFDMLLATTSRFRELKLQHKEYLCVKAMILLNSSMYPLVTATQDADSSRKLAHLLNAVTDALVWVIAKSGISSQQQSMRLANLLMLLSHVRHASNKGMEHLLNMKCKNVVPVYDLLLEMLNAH
Excerpt: (§1) Gal4-LBD constructs of tested nuclear receptors have been used together with pGL4.31[luc2P/GAL4UAS/Hygro] luciferase reporter construct and pRL-TK Renilla expression vector (both from Promega, Hercules, USA) in HepG2 cells transfected with Lipofectamine 2000 or 3000 reagents. For GRα and FXR receptors, full-length expression vectors have been used with pGRE-luc or pFXRE-luc luciferase constructs. For the aryl hydrocarbon receptor (AhR), p1A1-luc construct was used with only pRL-TK vector for transfection normalization. A dual reporter assay (Promega, Hercules, USA) was used to analyze both firefly and Renilla luciferase activities.
(§2) Gal4-LBD constructs of tested nuclear receptors have been used together with pGL5-luc luciferase reporter construct and pRL-TK Renilla expression vector in HepG2 cells transfected with Lipofectamine 2000 or 3000 reagents. For GRα and FXR receptors, full-length expression vectors have been used with pGRE-luc or pFXRE-luc luciferase constructs. For the aryl hydrocarbon receptor (AhR), p1A1-luc construct was used with only pRL-TK vector for transfection normalization. […] Bars represent means±S.D. (n=3).

LXRα = LXRα (Homo sapiens, UniProt Q13133); assay: Luciferase reporter gene assay LXRα, HepG2
LXRα, sequence (Q13133 209-447 limits assumed): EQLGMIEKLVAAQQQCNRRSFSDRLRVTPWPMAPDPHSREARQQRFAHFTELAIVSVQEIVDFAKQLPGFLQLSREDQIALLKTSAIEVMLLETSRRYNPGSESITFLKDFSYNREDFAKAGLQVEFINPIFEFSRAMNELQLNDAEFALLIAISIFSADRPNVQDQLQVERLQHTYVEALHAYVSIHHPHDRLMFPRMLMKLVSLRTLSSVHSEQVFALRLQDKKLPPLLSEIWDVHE
Excerpt: as §1, §2

HepaRG cells = assay: RT-qPCR mRNA expression in differentiated HepaRG cells
Excerpt: HepaRG cells from Biopredic (Rennes, France) were cultivated and differentiated on the 12-well plates. […] Several batches of HepaRG KO CAR (CAR Knockout HepaRG™ Cells, MTOX1012-1VL, RRID:CVCL_B6AA) and PXR Knockout HepaRG™ Cells, MTOX1011-1VL, RRID:CVCL_B6AS) cells have been obtained from Sigma-Aldrich/Merck (Darmstadt, Germany) and cultivated according to the provider’s protocols. […] Experiments with HepaRG KO PXR and HepaRG KO CAR cells have been performed in duplicates at least in two independent experiments.
RT-qPCR was used to examine gene expression in 2D and 3D PHH, HepaRG cells, or in mouse liver or intestine (ileum) samples as we have described before[60]–[62].
All qRT-qPCR experiments including Trizol reagent (Life Technologies) total RNA isolation, reverse-transcription using a random hexaprimer, and the MMLV Reverse Transcriptase Kit (ThermoFisher Scientific) we have described before^19. qPCR was performed using TaqMan Fast Advanced Master Mix with TaqMan probes (ThermoFisher Scientific). […] The delta-delta method was used for gene expression quantification normalized to at least two reference genes. Three technical replicates were used for each reaction considering the MIQE guidelines. Data are presented as fold induction to vehicle-treated cells/animals.

[2] = first vehicle/MI-883 column pair
[3] = second vehicle/MI-883 column pair

NC(=O)c1cc(Cn2cc(-c3c(-c4ccc(Cl)cc4)nc4cc(F)ccn34)nn2)ccc1Cl [MI-883, 2-chloro-5-((4-(2-(4-chlorophenyl)-7-fluoroimidazo[1,2-a]pyridin-3-yl)-1H-1,2,3-triazol-1-yl)methyl)benzamide]
ALP ([1]; HCD female): 64 and 60 and 66 | ALT ([1]; HCD female): 52 and 44 and 50 and 65 and 53 and 31 and 37 | AST ([1]; HCD female): 97 and 85 and 59 and 60 and 100 and 48 | Albumin ([1]; HCD female): 29.13 and 29.02 and 28.37 and 27.41 and 25.72 and 27.39 and 28.99 | Bilirubin ([1]; HCD female): 1.92 and 2.23 and 1.15 and 0.79 and 1.09 and 1.2 | Fe ([1]; HCD female): 25.95 and 24.87 and 19.99 and 29.01 and 26.38 and 27.47 and 25.24 | UA ([1]; HCD female): 74.13 and 68.35 and 69.17 and 60.17 and 117.85 and 58.32 and 32.43 | Urea ([1]; HCD female): 5.81 and 6.85 and 7.72 and 6.07 and 8.19 and 6.12 and 7.88 | ALP ([1]; HCD male): 60 and 53 and 64 and 50 and 42 and 46 and 69 and 45 and 43 | ALT ([1]; HCD male): 335 and 154 and 210 and 103 and 48 and 36 and 40 and 194 and 61 | AST ([1]; HCD male): 202 and 190 and 151 and 98 and 62 and 43 and 71 and 125 and 88 | Albumin ([1]; HCD male): 25.95 and 26.89 and 26.71 and 27.24 and 27.46 and 26.93 and 28.1 and 27.95 and 27.85 | Bilirubin ([1]; HCD male): 1.82 and 2.96 and 1.74 and 3.02 and 2.04 and 3.59 and 1.89 and 1.94 | Fe ([1]; HCD male): 21.53 and 13.76 and 24.97 and 21.49 and 28.7 and 25.79 and 20.83 and 28.43 and 27.87 | UA ([1]; HCD male): 56.8 and 93.42 and 54.01 and 55.84 and 44.35 and 31.12 and 35.14 and 37.35 and 25.57 | Urea ([1]; HCD male): 7.34 and 6.71 and 7.14 and 5.73 and 5.13 and 5.97 and 6.54 and 7 | liver weight (LW) and LW/BW ([1]; HCD, p.o. 5 mg/kg, five doses every other day): not after five doses | LDH ([1]; HCD, (sex not given)): 1.47 and 1.15 and 1.63 and 0.85 and 1.36 and 1.38 and 0.99 and 1.41 and 1.28 | LDH ([1]; HCD, vehicle/MI-883 (sex not given)): 1.12 and 1.15 and 1.19 and 1.1 and 1.09 | BW (Fig. 4g) [1, 2]: 26.3 and 24.9 and 24.8 and 24.3 and 24 and 23.2 | Chol (Fig. 4h) [1, 2]: 3.83 and 3.39 and 3.78 and 3.72 and 3.46 and 3.54 and 3.66 | Glu (Fig. 4h) [1, 2]: 13.29 and 13.05 and 14.81 and 13.6 and 14.89 and 13.61 and 13.46 | HDL (Fig. 4h) [1, 2]: 2.476 and 2.431 and 2.259 and 2.337 and 2.161 and 2.202 and 2.297 | LDL (Fig. 4h) [1, 2]: 1.12 and 1.15 and 1.19 and 1.1 and 1.09 | LW (Fig. 4g) [1, 2]: 1.78 and 1.62 and 1.65 and 1.52 and 1.64 and 1.48 | LW/BW (Fig. 4g) [1, 2]: 6.77 and 6.51 and 6.65 and 6.255 and 6.833 and 6.379 | TG (Fig. 4h) [1, 2]: 1.189 and 1.059 and 1.137 and 1.521 and 2.113 and 1.22 and 1.433 | triglyceride levels in females ([1]; second study (HCD), at the level of statistical significance): some increase | BW (Fig. 4g) [1, 3]: 30 and 29.4 and 30.6 and 30.9 and 33.4 and 29.7 and 26.5 and 28.4 and 26.8 | Chol (Fig. 4h) [1, 3]: 5.16 and 3.99 and 5.8 and 3.44 and 4.89 and 4.88 and 4.18 and 4.72 | Glu (Fig. 4h) [1, 3]: 13.25 and 13.05 and 16.4 and 12.86 and 18.52 and 15.35 and 11.72 and 18.14 and 17.74 | HDL (Fig. 4h) [1, 3]: 3.01 and 2.484 and 3.335 and 2.267 and 3.073 and 3.039 and 2.781 and 3.388 and 2.988 | LDL (Fig. 4h) [1, 3]: 1.47 and 1.15 and 1.63 and 0.85 and 1.36 and 1.38 and 0.99 and 1.41 and 1.28 | LW (Fig. 4g) [1, 3]: 1.63 and 1.97 and 2.03 and 1.53 and 2.51 and 2.11 and 1.85 and 1.32 and 1.94 | LW/BW (Fig. 4g) [1, 3]: 5.43 and 6.7 and 6.63 and 4.95 and 7.51 and 7.1 and 6.98 and 4.65 and 7.24 | TG (Fig. 4h) [1, 3]: 0.993 and 0.808 and 0.849 and 0.608 and 0.516 and 0.697 and 0.709 and 0.93 and 0.706 | NRs assays: ERbeta (relative to ctrl, replicates) (ERβ): 0.84 and 0.86 and 0.88 | NRs assays: GAL4-LXR+RXR (relative to ctrl, replicates) (LXRα): 0.88 and 1.89 and 2.24 | INSIG1 mRNA in HepaRG cells (HepaRG cells): significantly upregulated | LDLR mRNA in HepaRG cells (HepaRG cells): significant PXR-dependent upregulation | SREBF1 mRNA expression in HepaRG / KO cells (HepaRG cells): CAR-dependent downregulation | SREBF2 mRNA expression in HepaRG cells (HepaRG cells): no significant effect | HMGCR expression relative to control (replicates) (HepaRG cells; MI-883 1 μM): 0.8473 and 0.6697 and 1.095 and 1.161 and 1.262 and 0.6816 | HMGCS2 expression relative to control (replicates) (HepaRG cells; MI-883 1 μM): 0.9842 and 0.7188 and 1.1212 and 1.322 | PCSK9 expression relative to control (replicates) (HepaRG cells; MI-883 1 μM): 0.9984 and 0.8995 and 1.064 and 1.124 | HMGCR expression relative to control (replicates) (HepaRG cells; MI-883 1 μM + Rif (5 μM)): 1.453 and 0.9465 and 0.9544 and 1.191 and 1.542 and 0.8007 | HMGCS2 expression relative to control (replicates) (HepaRG cells; MI-883 1 μM + Rif (5 μM)): 0.681 and 1.013 and 0.6433 and 0.4816 | PCSK9 expression relative to control (replicates) (HepaRG cells; MI-883 1 μM + Rif (5 μM)): 0.8085 and 0.8006 and 1.133 and 0.9198 | HMGCR expression relative to control (replicates) (HepaRG cells; MI-883 5 μM): 1.295 and 1.166 and 1.377 and 1.27 and 0.8404 | HMGCS2 expression relative to control (replicates) (HepaRG cells; MI-883 5 μM): 0.5911 and 1.022 | PCSK9 expression relative to control (replicates) (HepaRG cells; MI-883 5 μM): 0.6066 and 1.012 | HMGCR expression relative to control (replicates) (HepaRG cells; MI-883 5 μM + Rif (5 μM)): 1.005 and 1.538 and 1.592 and 1.152 and 1.312 | HMGCS2 expression relative to control (replicates) (HepaRG cells; MI-883 5 μM + Rif (5 μM)): 0.8846 and 0.5305 | PCSK9 expression relative to control (replicates) (HepaRG cells; MI-883 5 μM + Rif (5 μM)): 1.035 and 0.636 | HMGCR expression relative to control (replicates) (HepaRG cells; MI-883 10 μM): 1.683 and 0.9974 and 1.042 and 1.481

Reference: paper PMC11802874, “The hypolipidemic effect of MI-883, the combined CAR agonist/ PXR antagonist, in diet-induced hypercholesterolemia model” (Nature Communications, 2025)
